According to patent US10550105B2 (Ribon Therapeutics Inc., priority 2018, dated 2020):

Molecular target: PARP7 (Homo sapiens (Human), UniProt Q7Z3E1)
Experiment: Enzymatic assay for inhibition of PARP7: TR-FRET displacement of biotinylated Probe A from the TIPARP active site
Assay type: binding
Settings: Table A-1
In short: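 Compounds were tested as dose-response series, and reactions were incubated a further 30 min at 25° C. TR-FRET was read at 320 nm excitation with 615 and 665 nm emission after a 90 μs delay. The 665/615 ratio gave the TIPARP–Probe A complex, and % inhibition was fitted against concentration.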

Chain of PARP7 (Q7Z3E1 whole entry): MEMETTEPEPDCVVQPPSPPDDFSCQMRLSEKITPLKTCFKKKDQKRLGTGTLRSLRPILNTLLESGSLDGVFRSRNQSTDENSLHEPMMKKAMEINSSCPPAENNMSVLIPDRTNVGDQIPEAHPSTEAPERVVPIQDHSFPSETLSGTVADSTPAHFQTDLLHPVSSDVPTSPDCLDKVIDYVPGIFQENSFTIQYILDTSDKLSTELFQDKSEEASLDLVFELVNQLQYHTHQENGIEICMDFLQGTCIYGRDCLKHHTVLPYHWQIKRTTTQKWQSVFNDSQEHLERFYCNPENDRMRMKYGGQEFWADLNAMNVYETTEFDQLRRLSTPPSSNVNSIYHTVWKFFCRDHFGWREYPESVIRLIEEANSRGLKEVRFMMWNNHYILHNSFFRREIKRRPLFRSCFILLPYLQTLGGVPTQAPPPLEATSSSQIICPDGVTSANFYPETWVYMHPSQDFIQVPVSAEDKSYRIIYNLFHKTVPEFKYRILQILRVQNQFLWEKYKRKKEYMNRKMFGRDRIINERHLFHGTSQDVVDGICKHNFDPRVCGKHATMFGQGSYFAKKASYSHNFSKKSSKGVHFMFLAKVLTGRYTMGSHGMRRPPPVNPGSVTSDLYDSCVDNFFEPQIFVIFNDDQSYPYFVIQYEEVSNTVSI

Row | SMILES | IC50
1 | O=C(CCOC[C@@H]1CCCN1c1cn[nH]c(=O)c1C(F)(F)F)NC1CCC(Oc2ccccn2)CC1 (stereo partly drawn) [Example 84, 3-[[(2S)-1-[6-oxo-5-(trifluoromethyl)-1,6-dihydropyridazin-4-yl]pyrrolidin-2-yl]methoxy]-N-[4-(pyridin-2-yloxy)cyclohexyl]propanamide] | 100 to 1000 nM
2 | N#Cc1ccc(NCCC(=O)Nc2cncc(OC[C@@H]3CCCN3c3cn[nH]c(=O)c3C(F)(F)F)c2)nc1 [Example 87, 3-[(5-cyanopyridin-2-yl)amino]-N-(5-[[(2S)-1-[6-oxo-5-(trifluoromethyl)-1,6-dihydropyridazin-4-yl]pyrrolidin-2-yl]methoxy]pyridin-3-yl)propanamide] | < 100 nM
3 | N#Cc1ccc(N2CCN(C(=O)CNCC[C@@H]3CCCN3c3cn[nH]c(=O)c3C(F)(F)F)CC2)nc1 [Example 89, 6-[4-[2-([2-[(2S)-1-[6-oxo-5-(trifluoromethyl)-1,6-dihydropyridazin-4-yl]pyrrolidin-2-yl]ethyl]amino)acetyl]piperazin-1-yl]pyridine-3-carbonitrile] | < 100 nM
4 | CN(CC[C@@H]1CCCN1c1cn[nH]c(=O)c1C(F)(F)F)CC(=O)N1CCN(c2ccc(C#N)cn2)CC1 [Example 91] | 100 to 1000 nM
5 | N#Cc1ccc(N2CCN(C(=O)C3CCC(OCC4CCN(c5cn[nH]c(=O)c5C(F)(F)F)C4)CC3)CC2)nc1 (stereo not drawn) [Example 97, 6-[4-[4-([1-[6-oxo-5-(trifluoromethyl)-1,6-dihydropyridazin-4-yl]pyrrolidin-3-yl]methoxy)cyclohexanecarbonyl]piperazin-1-yl]pyridine-3-carbonitrile] | < 100 nM
6 | N#Cc1ccc(OC2CCC(NC(=O)CCOC[C@@H]3CCCN3c3cn[nH]c(=O)c3C(F)(F)F)CC2)nc1 (stereo partly drawn) [Example 99, N-(4-[(5-cyanopyridin-2-yl)oxy]cyclohexyl]-3-[[(2S)-1-[6-oxo-5-(trifluoromethyl)-1,6-dihydropyridazin-4-yl]pyrrolidin-2-yl]methoxy]propanamide] | 100 to 1000 nM
7 | N#Cc1ccc(N2CC3CCC2CN3C(=O)CCOC[C@@H]2CCCN2c2cn[nH]c(=O)c2C(F)(F)F)nc1 (stereo partly drawn) [Example 101, 6-[5-(3-[[(2S)-1-[6-oxo-5-(trifluoromethyl)-1,6-dihydropyridazin-4-yl]pyrrolidin-2-yl]methoxy]propanoyl)-2,5-diazabicyclo[2.2.2]octan-2-yl]pyridine-3-carbonitrile] | < 100 nM
8 | N#Cc1ccc(N2C3CCC2CN(C(=O)CCOC[C@@H]2CCCN2c2cn[nH]c(=O)c2C(F)(F)F)C3)nc1 [Example 102, 6-[3-(3-[[(2S)-1-[6-oxo-5-(trifluoromethyl)-1,6-dihydropyridazin-4-yl]pyrrolidin-2-yl]methoxy]propanoyl)-3,8-diazabicyclo[3.2.1]octan-8-yl]pyridine-3-carbonitrile] | < 100 nM
9 | N#Cc1ccc(N2CCC3(CCN(C(=O)CCOC[C@@H]4CCCN4c4cn[nH]c(=O)c4C(F)(F)F)C3)CC2)nc1 [Example 103, 6-[2-(3-[[(2S)-1-[6-oxo-5-(trifluoromethyl)-1,6-dihydropyridazin-4-yl]pyrrolidin-2-yl]methoxy]propanoyl)-2,8-diazaspiro [4.5]decan-8-yl]pyridine-3-carbonitrile] | 100 to 1000 nM
10 | N#Cc1ccc(N2CCC3(CC2)CN(C(=O)CCOC[C@@H]2CCCN2c2cn[nH]c(=O)c2C(F)(F)F)C3)nc1 [Example 105, 6-[2-(3-[[(2S)-1-[6-oxo-5-(trifluoromethyl)-1,6-dihydropyridazin-4-yl]pyrrolidin-2-yl]methoxy]propanoyl)-2,7-diazaspiro[3.5]nonan-7-yl]pyridine-3-carbonitrile] | 100 to 1000 nM
11 | N#Cc1ccc(N2CCCN(C(=O)CCOC[C@@H]3CCCN3c3cn[nH]c(=O)c3C(F)(F)F)CC2)nc1 [Example 106, (S)-6-(4-(3-((1-(6-oxo-5-(trifluoromethyl)-1,6-dihydropyridazin-4-yl)pyrrolidin-2-yl)methoxy)propanoyl)-1,4-diazepan-1-yl)nicotinonitrile] | < 100 nM
12 | N#Cc1ccc(NC2CN(C(=O)CCOC[C@@H]3CCCN3c3cn[nH]c(=O)c3C(F)(F)F)C2)nc1 [Example 107, 6-[[1-(3-[[(2S)-1-[6-oxo-5-(trifluoromethyl)-1,6-dihydropyridazin-4-yl]pyrrolidin-2-yl]methoxy]propanoyl)azetidin-3-yl]amino]pyridine-3-carbonitrile] | < 100 nM
13 | N#Cc1ccc(N2CCC3(CN(C(=O)CCOC[C@@H]4CCCN4c4cn[nH]c(=O)c4C(F)(F)F)C3)C2)nc1 [Example 109, 6-[2-(3-[[(2S)-1-[6-oxo-5-(trifluoromethyl)-1,6-dihydropyridazin-4-yl]pyrrolidin-2-yl]methoxy]propanoyl)-2,6-diazaspiro[3.4]octan-6-yl]pyridine-3-carbonitrile] | 100 to 1000 nM

The next lines start with the values.

Row | IC50 | SMILES
14 | < 100 nM | N#Cc1ccc(NCCC(=O)Nc2cccc(OC[C@@H]3CCCN3c3cn[nH]c(=O)c3C(F)(F)F)c2)nc1 [Example 85, 3-[(5-cyanopyridin-2-yl)amino]-N-(3-[[(2S)-1-[6-oxo-5-(trifluoromethyl)-1,6-dihydropyridazin-4-yl]pyrrolidin-2-yl]methoxy]phenyl)propanamide]
15 | 100 to 1000 nM | C=CC(=O)Nc1cccc(OC[C@@H]2CCCN2c2cn[nH]c(=O)c2C(F)(F)F)c1 [Example 86, N-(3-[[(2S)-1-[6-oxo-5-(trifluoromethyl)-1,6-dihydropyridazin-4-yl]pyrrolidin-2-yl]methoxy]phenyl)prop-2-enamide]
16 | < 100 nM | N#Cc1ccc(N2CCN(C(=O)COCC[C@@H]3CCCN3c3cn[nH]c(=O)c3C(F)(F)F)CC2)nc1 [Example 88, (S)-6-(4-(2-(2-(1-(6-oxo-5-(trifluoromethyl)-1,6-dihydropyridazin-4-yl)pyrrolidin-2-yl)ethoxy)acetyl)piperazin-1-yl)nicotinonitrile]
17 | < 100 nM | N#Cc1ccc(N2CCN(CCCOC[C@@H]3CCCN3c3cn[nH]c(=O)c3C(F)(F)F)CC2)nc1 [Example 90]
18 | < 100 nM | C[C@@H]1CN(c2ccc(C#N)cn2)CCN1C(=O)CCOC[C@@H]1CCCN1c1cn[nH]c(=O)c1C(F)(F)F [Example 100A, 6-[(3R)-3-methyl-4-(3-[[(2S)-1-[6-oxo-5-(trifluoromethyl)-1,6-dihydropyridazin-4-yl]pyrrolidin-2-yl]methoxy]propanoyl)piperazin-1-yl]pyridine-3-carbonitrile]
19 | < 100 nM | C[C@H]1CN(c2ccc(C#N)cn2)CCN1C(=O)CCOC[C@@H]1CCCN1c1cn[nH]c(=O)c1C(F)(F)F [Example 100B, 6-[(3S)-3-methyl-4-(3-[[(2S)-1-[6-oxo-5-(trifluoromethyl)-1,6-dihydropyridazin-4-yl]pyrrolidin-2-yl]methoxy]propanoyl)piperazin-1-yl]pyridine-3-carbonitrile]
20 | ≥ 1000 nM | N#Cc1ccc(N2CCC3(CCN(C(=O)CCOC[C@@H]4CCCN4c4cn[nH]c(=O)c4C(F)(F)F)CC3)C2)nc1 [Example 104, 6-[8-(3-[[(2S)-1-[6-oxo-5-(trifluoromethyl)-1,6-dihydropyridazin-4-yl]pyrrolidin-2-yl]methoxy]propanoyl)-2,8-diazaspiro[4.5]decan-2-yl]pyridine-3-carbonitrile]
21 | 100 to 1000 nM | N#Cc1ccc(N2CC3(CN(C(=O)CCOC[C@@H]4CCCN4c4cn[nH]c(=O)c4C(F)(F)F)C3)C2)nc1 [Example 108, 6-[6-(3-[[(2S)-1-[6-oxo-5-(trifluoromethyl)-1,6-dihydropyridazin-4-yl]pyrrolidin-2-yl]methoxy]propanoyl)-2,6-diazaspiro [3.3]heptan-2-yl]pyridine-3-carbonitrile]
22 | 100 to 1000 nM | N#Cc1ccc(N2CCC3(CCN(C(=O)CCOC[C@@H]4CCCN4c4cn[nH]c(=O)c4C(F)(F)F)C3)C2)nc1 (stereo partly drawn) [Example 111, 6-[7-(3-[[(2S)-1-[6-oxo-5-(trifluoromethyl)-1,6-dihydropyridazin-4-yl]pyrrolidin-2-yl]methoxy]propanoyl)-2,7-diazaspiro[4.4]nonan-2-yl]pyridine-3-carbonitrile]
23 | 100 to 1000 nM | N#Cc1ccc(N2C[C@@H]3C[C@H]2CN3C(=O)CCOC[C@@H]2CCCN2c2cn[nH]c(=O)c2C(F)(F)F)nc1 [Example 112A, 6-[(1S,4S)-5-(3-(((S)-1-(6-oxo-5-(trifluoromethyl)-1,6-dihydropyridazin-4-yl)pyrrolidin-2-yl)methoxy)propanoyl)-2,5-diaza-bicyclo[2.2.1]heptan-2-yl)nicotinonitrile]
24 | ≥ 1000 nM | N#Cc1ccc(N2C[C@H]3C[C@@H]2CN3C(=O)CCOC[C@@H]2CCCN2c2cn[nH]c(=O)c2C(F)(F)F)nc1 [Example 112B, 6-[(1R,4R)-5-(3-(((S)-1-(6-oxo-5-(trifluoromethyl)-1,6-dihydropyridazin-4-yl)pyrrolidin-2-yl)methoxy)propanoyl)-2,5-diaza-bicyclo[2.2.1]heptan-2-yl)nicotinonitrile]
25 | ≥ 1000 nM | N#Cc1ccc(N2CCCC(NC(=O)CCOC[C@@H]3CCCN3c3cn[nH]c(=O)c3C(F)(F)F)C2)nc1 (stereo partly drawn) [Example 114, N-[1-(5-cyanopyridin-2-yl)piperidin-3-yl]-3-[[(2S)-1-[6-oxo-5-(trifluoromethyl)-1,6-dihydropyridazin-4-yl]pyrrolidin-2-yl]methoxy]propanamide]
26 | < 100 nM | N#Cc1ccc(N2CCC(NC(=O)CCOC[C@@H]3CCCN3c3cn[nH]c(=O)c3C(F)(F)F)CC2)nc1 [Example 115, N-[1-(5-cyanopyridin-2-yl)piperidin-4-yl]-3-[[(2S)-1-[6-oxo-5-(trifluoromethyl)-1,6-dihydropyridazin-4-yl]pyrrolidin-2-yl]methoxy]propanamide]
27 | < 100 nM | N#Cc1ccc(NC2CCN(C(=O)CCOC[C@@H]3CCCN3c3cn[nH]c(=O)c3C(F)(F)F)CC2)nc1 [Example 116, 6-[[1-(3-[[(2S)-1-[6-oxo-5-(trifluoromethyl)-1,6-dihydropyridazin-4-yl]pyrrolidin-2-yl]methoxy]propanoyl)piperidin-4-yl]amino]pyridine-3-carbonitrile]
